Literature values, collected in patent US20080188510A1, “NOVEL METHODS USING ZONISAMIDE” (Eisai R & D Management Co., Ltd., priority 2005, published 2008).

Test system: dopaminergic neurodegeneration induced by MPTP
Conditions: MPTP (1-methyl-4-phenyl-1,2,3,6-tetrahydropyridine) induced; cited from earlier work

In the case of `NS(=O)(=O)Cc1noc2ccccc12` [zonisamide, 3-sulfamoylmethyl-1,2-benzisoxazole], the “suppressant action to dopaminergic neurodegeneration induced by MPTP” value is given as “extremely strong suppressant action”.
